Values belong to the compound of their own block, whether it stands above or below them.
Assays:
[1] = Lipophilicity, logD of the compound at pH 7.4 by shake-flask assay; format: physicochemical; conditions: buffer
[2] = Chromatographic hydrophobicity index, logD of the compound; format: physicochemical
[3] = Clearance in C57BL/6 mouse at 1 mg/kg, po measured upto 24 hrs by LC-MS/MS analysis; format: ADME, organism-based; conditions: in vivo
[4] = Clearance in Han Wistar rat at 1 mg/kg, po measured upto 24 hrs by LC-MS/MS analysis; format: ADME, organism-based; conditions: in vivo
[5] = Clearance in Beagle dog at 1 mg/kg, po measured upto 24 hrs by LC-MS/MS analysis; format: ADME, organism-based, Canis lupus familiaris; conditions: in vivo
[6] = Half-life in C57BL/6 mouse at 1 mg/kg, po measured upto 24 hrs by LC-MS/MS analysis; format: ADME, organism-based; conditions: in vivo
[7] = Half-life in Han Wistar rat at 1 mg/kg, po measured upto 24 hrs by LC-MS/MS analysis; format: ADME, organism-based; conditions: in vivo
[8] = Half-life in Beagle dog at 1 mg/kg, po measured upto 24 hrs by LC-MS/MS analysis; format: ADME, organism-based, Canis lupus familiaris; conditions: in vivo
[9] = Oral bioavailability in C57BL/6 mouse at 1 mg/kg measured upto 24 hrs by LC-MS/MS analysis; format: ADME, organism-based; conditions: in vivo
[10] = Oral bioavailability in Han Wistar rat at 1 mg/kg measured upto 24 hrs by LC-MS/MS analysis; format: ADME, organism-based; conditions: in vivo
[11] = Oral bioavailability in Beagle dog at 1 mg/kg measured upto 24 hrs by LC-MS/MS analysis; format: ADME, organism-based, Canis lupus familiaris; conditions: in vivo
[12] = Drug uptake in mouse plasma at 60 mg/kg, po; format: ADME, organism-based; conditions: in vivo
Estrogen receptor = target: T1, Estrogen receptor (Homo sapiens, UniProt P03372); experiment: Induction of ERalpha degradation in human MCF7 cells; format: cell-based
T1 sequence (P03372 whole entry): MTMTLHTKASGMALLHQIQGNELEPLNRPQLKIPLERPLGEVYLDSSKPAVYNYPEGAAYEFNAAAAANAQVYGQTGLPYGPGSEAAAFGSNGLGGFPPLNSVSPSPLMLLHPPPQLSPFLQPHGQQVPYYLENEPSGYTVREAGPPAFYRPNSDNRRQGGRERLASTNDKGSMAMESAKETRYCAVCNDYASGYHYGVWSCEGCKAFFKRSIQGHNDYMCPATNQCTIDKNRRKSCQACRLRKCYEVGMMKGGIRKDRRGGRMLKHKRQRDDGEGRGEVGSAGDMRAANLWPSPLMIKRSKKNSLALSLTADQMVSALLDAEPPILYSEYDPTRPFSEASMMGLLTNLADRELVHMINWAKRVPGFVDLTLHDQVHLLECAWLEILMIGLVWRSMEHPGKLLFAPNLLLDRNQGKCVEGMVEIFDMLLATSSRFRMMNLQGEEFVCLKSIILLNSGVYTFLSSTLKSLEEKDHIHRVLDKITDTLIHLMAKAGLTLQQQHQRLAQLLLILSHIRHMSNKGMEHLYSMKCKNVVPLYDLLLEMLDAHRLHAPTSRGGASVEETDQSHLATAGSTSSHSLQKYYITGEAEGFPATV

[13] = target: T2, Estrogen receptor (Homo sapiens) (UniProt P03372); experiment: Induction of ERalpha degradation in human MCF7 cells relative to control; format: cell-based
T2 sequence (whole entry): T1 sequence (P03372 whole entry)

[14] = target: T3, Androgen receptor (Homo sapiens) (UniProt P10275); experiment: Induction of AR degradation in human VCaP cells relative to control; format: cell-based
T3 sequence (whole entry): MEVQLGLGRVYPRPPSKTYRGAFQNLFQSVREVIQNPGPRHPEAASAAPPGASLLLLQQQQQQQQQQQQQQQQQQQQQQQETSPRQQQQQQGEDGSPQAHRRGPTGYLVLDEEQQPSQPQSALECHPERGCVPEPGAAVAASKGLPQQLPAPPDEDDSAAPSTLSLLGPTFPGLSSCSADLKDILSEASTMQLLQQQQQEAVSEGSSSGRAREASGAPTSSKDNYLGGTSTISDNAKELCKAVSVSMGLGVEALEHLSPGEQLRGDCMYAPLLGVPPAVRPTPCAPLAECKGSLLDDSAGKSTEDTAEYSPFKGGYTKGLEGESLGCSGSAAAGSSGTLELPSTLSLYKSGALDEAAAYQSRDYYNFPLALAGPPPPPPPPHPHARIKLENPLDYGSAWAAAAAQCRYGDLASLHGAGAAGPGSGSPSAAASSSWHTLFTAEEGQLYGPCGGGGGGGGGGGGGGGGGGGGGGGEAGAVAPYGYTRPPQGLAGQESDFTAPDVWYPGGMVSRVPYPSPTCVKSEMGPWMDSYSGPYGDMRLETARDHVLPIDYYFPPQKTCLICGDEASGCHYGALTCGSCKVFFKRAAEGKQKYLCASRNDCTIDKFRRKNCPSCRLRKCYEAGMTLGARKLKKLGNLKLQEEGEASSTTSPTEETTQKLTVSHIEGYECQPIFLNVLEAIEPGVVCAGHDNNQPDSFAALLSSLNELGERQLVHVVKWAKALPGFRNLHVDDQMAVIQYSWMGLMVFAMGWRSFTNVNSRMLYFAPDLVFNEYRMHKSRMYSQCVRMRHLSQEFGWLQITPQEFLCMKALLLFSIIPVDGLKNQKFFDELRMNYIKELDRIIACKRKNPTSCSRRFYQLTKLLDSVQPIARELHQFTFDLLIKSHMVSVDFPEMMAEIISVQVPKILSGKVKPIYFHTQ

Androgen receptor [15] = target: T4, Androgen receptor (Homo sapiens, UniProt P10275); experiment: Induction of AR degradation in human VCaP cells; format: cell-based
T4 sequence (P10275 whole entry): T3 sequence (whole entry)

[16] = Volume of distribution at steady state in C57BL/6 mouse at 1 mg/kg, po measured upto 24 hrs by LC-MS/MS analysis; format: ADME, organism-based; conditions: in vivo
[17] = Volume of distribution at steady state in Han Wistar rat at 1 mg/kg, po measured upto 24 hrs by LC-MS/MS analysis; format: ADME, organism-based; conditions: in vivo
[18] = Volume of distribution at steady state in Beagle dog at 1 mg/kg, po measured upto 24 hrs by LC-MS/MS analysis; format: ADME, organism-based, Canis lupus familiaris; conditions: in vivo
[19] = Dissociation constant, pKa of the compound; format: physicochemical
[20] = Drug uptake in mouse plasma at 30 mg/kg, po; format: ADME, organism-based; conditions: in vivo
Androgen receptor [21] = target: T4, Androgen receptor; experiment: Induction of AR degradation in human LNCaP cells; format: cell-based
[22] = target: T3, Androgen receptor (Homo sapiens); experiment: Induction of AR degradation in human LNCaP cells relative to control; format: cell-based

logD [1]: 4.6 | CHI [2]: 5.3 | CL/F [3]: 35 mL/min/kg | CL/F [4]: 28 mL/min/kg | CL/F [5]: 3 mL/min/kg | half-life [6]: 6.2 h | half-life [7]: 15 h | half-life [8]: 11 h | bioavailability [9]: 59% | bioavailability [10]: 24% | bioavailability [11]: 5%
Structure (SMILES): O=C1CC[C@H](N2Cc3cc(N4CCN(CC5CCN(c6ccc([C@@H]7c8ccc(O)cc8CC[C@@H]7c7ccccc7)cc6)CC5)CC4)ccc3C2=O)C(=O)N1 [VEPDEGESTRANT]

Drug uptake [12]: Active
Structure (SMILES): Cc1ncsc1-c1ccc(CNC(=O)[C@@H]2C[C@@H](O)CN2C(=O)[C@@H](NC(=O)CCCCCCCCCCNC(=O)O[C@H]2C[C@@H](C)C=C3C=C[C@H](C)[C@H](CC[C@@H]4C[C@@H](O)CC(=O)O4)[C@H]32)C(C)(C)C)cc1

CHI [2]: 6.1 | CL/F [3]: 6.1 mL/min/kg | bioavailability [9]: 45% | IC50 (Estrogen receptor): ≤ 1 nM | Emax [13]: > 90%
Structure (SMILES): C[C@@H]1Cc2c([nH]c3ccccc23)[C@@H](c2cnc(N3CCC(CN4CCN(c5ccc6c(c5)CN(C5CCC(=O)NC5=O)C6=O)CC4)CC3)nc2)N1CC(C)(C)F (stereo not given in full)

Emax [14]: < 50% | DC50 (Androgen receptor [15]): 1 nM
Structure (SMILES): COc1cc(O[C@H]2C(C)(C)[C@H](NC(=O)c3ccc(N4CCC(CN5CCN(c6ccc(C(=O)N[C@@H]7CCC(=O)NC7=O)c(F)c6)CC5)CC4)cc3)C2(C)C)ccc1C#N

logD [1]: 4.7 | CHI [2]: 5 | CL/F [3]: 4.2 mL/min/kg | CL/F [4]: 16 mL/min/kg | CL/F [5]: 6.4 mL/min/kg | Vdss [16]: 2.3 L/kg | Vdss [17]: 9.1 L/kg | Vdss [18]: 15 L/kg | half-life [6]: 6.8 h | half-life [7]: 7.4 h | half-life [8]: 31 h | bioavailability [9]: 58% | bioavailability [10]: 38% | bioavailability [11]: 33% | Emax [14]: > 70% | DC50 (Androgen receptor [15]): < 1 nM
Structure (SMILES): COc1cc(O[C@H]2C(C)(C)[C@H](NC(=O)c3ccc(N4CCC(CN5CCN(c6ccc(C(=O)N[C@H]7CCC(=O)NC7=O)c(F)c6)CC5)CC4)cc3)C2(C)C)ccc1C#N [LUXDEGALUTAMIDE]

logD [1]: 3.6 | CHI [2]: 2.3 | CL/F [3]: 17 mL/min/kg | CL/F [4]: 51 mL/min/kg | CL/F [5]: 16 mL/min/kg | Vdss [16]: 2.7 L/kg | Vdss [17]: 7.7 L/kg | Vdss [18]: 6.7 L/kg | bioavailability [9]: 24% | bioavailability [10]: 7% | bioavailability [11]: 51% | pKa [19]: 8.5
Structure (SMILES): Cn1c(=O)n(C2CCC(=O)NC2=O)c2cccc(C#CCOC3CCN(C[C@H]4CC[C@H](n5cc(NC(=O)c6cnn7ccc(N8C[C@H]9C[C@@H]8CO9)nc67)c(C(F)F)n5)CC4)CC3)c21 (stereo not given in full) [KT-474]

logD [1]: 4.8 | CHI [2]: 5.1 | CL/F [3]: 3.9 mL/min/kg | CL/F [4]: 9 mL/min/kg | CL/F [5]: 4.7 mL/min/kg | Vdss [16]: 3.8 L/kg | Vdss [17]: 7.8 L/kg | Vdss [18]: 13 L/kg | half-life [6]: 13 h | half-life [7]: 9.3 h | half-life [8]: 32 h | bioavailability [9]: 65% | bioavailability [10]: 51% | bioavailability [11]: 14%
Structure (SMILES): N#Cc1ccc(O[C@H]2CC[C@H](NC(=O)c3ccc(N4CCC(CN5CCN(c6cc7c(cc6F)C(=O)N(C6CCC(=O)NC6=O)C7=O)CC5)CC4)nn3)CC2)cc1Cl (stereo not given in full) [BAVDEGALUTAMIDE]

CHI [2]: 7 | CL/F [3]: 5.3 mL/min/kg | bioavailability [9]: 38%
Structure (SMILES): C[C@@H]1Cc2c(n(C)c3ccccc23)[C@@H](c2cnc(N3CCC(CCN4CCN(c5ccc6c(c5)CN(C5CCC(=O)NC5=O)C6=O)CC4)CC3)nc2)N1CC(C)(C)F (mixture of isomers)

CHI [2]: 4.7 | CL/F [3]: 26.6 mL/min/kg | bioavailability [9]: < 1% | IC50 (Estrogen receptor): ≤ 1 nM | Emax [13]: > 90%
Structure (SMILES): C[C@@H]1Cc2c([nH]c3ccccc23)[C@@H](c2cnc(N3CCC(CNC4CCN(c5ccc6c(c5)CN(C5CCC(=O)NC5=O)C6=O)CC4)CC3)nc2)N1CC(C)(C)F (stereo not given in full)

CHI [2]: 6.1 | CL/F [3]: 5 mL/min/kg | bioavailability [9]: 15% | IC50 (Estrogen receptor): ≤ 1 nM | Emax [13]: > 90%
Structure (SMILES): C[C@@H]1Cc2c([nH]c3ccccc23)[C@@H](c2cnc(N3CCC(CCN4CCN(c5ccc6c(c5)CN(C5CCC(=O)NC5=O)C6=O)CC4)CC3)nc2)N1CC(C)(C)F (stereo not given in full)

Drug uptake [20]: Active
Structure (SMILES): Cc1ncsc1-c1ccc([C@H](CC[C@H](C)CCN2CCC(c3ccc4c(c3)n3c5cccc(Br)c5c(=O)nc3n4C3CCCC3)CC2)NC(=O)[C@@H]2C[C@@H](O)CN2C(=O)[C@@H](NC(=O)C2(F)CC2)C(C)(C)C)cc1

CHI [2]: 4.6 | CL/F [3]: 51.4 mL/min/kg | bioavailability [9]: < 1% | IC50 (Estrogen receptor): ≤ 1 nM | Emax [13]: > 90%
Structure (SMILES): C[C@@H]1Cc2c([nH]c3ccccc23)[C@@H](c2cnc(N3CCC(NC4CCN(c5ccc6c(c5)CN(C5CCC(=O)NC5=O)C6=O)CC4)CC3)nc2)N1CC(C)(C)F (stereo not given in full)

CHI [2]: 5.9 | CL/F [3]: 4.7 mL/min/kg | bioavailability [9]: 2% | DC50 (Androgen receptor [21]): 6 nM | Emax [22]: 96%
Structure (SMILES): Cc1ncsc1-c1ccc([C@H](C)NC(=O)[C@@H]2C[C@@H](O)CN2C(=O)[C@@H](NC(=O)COCCCCCNc2ccc(C(=O)N[C@H]3C(C)(C)[C@H](Oc4ccc(C#N)c(Cl)c4)C3(C)C)cc2)C(C)(C)C)cc1

CHI [2]: 5.6 | CL/F [3]: 19.3 mL/min/kg | bioavailability [9]: 12% | IC50 (Estrogen receptor): ≤ 1 nM | Emax [13]: > 90%
Structure (SMILES): C[C@@H]1Cc2c([nH]c3ccccc23)[C@@H](c2cnc(N3CCC(CN(C)C4CCN(c5ccc6c(c5)CN(C5CCC(=O)NC5=O)C6=O)CC4)CC3)nc2)N1CC(C)(C)F (stereo not given in full)

From ChEMBL document CHEMBL5550212, “Structural and Physicochemical Features of Oral PROTACs” (J Med Chem, 2024)
